According to ChEMBL document CHEMBL2150867, “Comparative study of the affinity and metabolism of type I and type II binding quinoline carboxamide analogues by cytochrome P450 3A4” (J Med Chem, 2012):

Assays:
Format in all cases: ADME
Cytochrome P450 3A4 [1] = target: T1, Cytochrome P450 3A4 (Homo sapiens, UniProt P08684); experiment: Inhibition of recombinant CYP3A4 NF-14 expressed in Escherichia coli assessed as formation of 6-beta-hydroxytestosterone using testosterone as substrate after 5 mins by HPLC based UV method
T1 sequence (P08684 whole entry): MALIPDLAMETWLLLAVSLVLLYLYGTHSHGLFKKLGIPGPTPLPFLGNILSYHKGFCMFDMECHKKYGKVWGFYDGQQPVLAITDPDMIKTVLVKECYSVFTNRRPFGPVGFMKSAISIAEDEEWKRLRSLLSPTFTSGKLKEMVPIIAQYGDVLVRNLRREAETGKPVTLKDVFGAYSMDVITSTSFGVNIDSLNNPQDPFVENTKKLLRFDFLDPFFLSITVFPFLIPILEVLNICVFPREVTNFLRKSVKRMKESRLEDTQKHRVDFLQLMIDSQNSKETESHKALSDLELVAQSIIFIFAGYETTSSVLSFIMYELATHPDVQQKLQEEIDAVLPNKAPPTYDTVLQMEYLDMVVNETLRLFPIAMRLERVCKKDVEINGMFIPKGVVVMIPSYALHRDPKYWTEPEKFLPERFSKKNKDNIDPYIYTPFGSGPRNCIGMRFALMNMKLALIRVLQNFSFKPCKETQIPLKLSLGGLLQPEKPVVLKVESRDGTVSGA

Cytochrome P450 3A4 [2] = target: T1, Cytochrome P450 3A4; experiment: Metabolic stability of the compound assessed as CYP3A4 NF-14-mediated ratio of product formation from functional group oxidation at ring A to aromatic hydroxylation at ring A
Cytochrome P450 3A4 [3] = target: T1, Cytochrome P450 3A4; experiment: Intrinsic clearance assessed as CYP3A4-mediated clearance; conditions: recombinant enzyme
Cytochrome P450 3A4 [4] = target: T1, Cytochrome P450 3A4; experiment: Binding affinity to recombinant CYP3A4 NF-14 expressed in Escherichia coli at maximum spectrum 420 to 435 and a trough at 390 to 405 nm by UV-Visible spectroscopy; conditions: recombinant enzyme, 0.405 µM
Cytochrome P450 3A4 [5] = target: T1, Cytochrome P450 3A4; experiment: Binding affinity to recombinant CYP3A4 NF-14 expressed in Escherichia coli at maximum spectrum 385 to 390 nm and a trough at 415 to 420 nm by UV-Visible spectroscopy; conditions: recombinant enzyme
Cytochrome P450 3A4 [6] = target: T1, Cytochrome P450 3A4; experiment: Metabolic stability of the compound assessed as CYP3A4 NF-14-mediated ratio of product formation from functional group oxidation at ring A to aromatic hydroxylation at ring B
Cytochrome P450 3A4 [7] = target: T1, Cytochrome P450 3A4; experiment: Metabolic stability of the compound assessed as CYP3A4 NF-14-mediated aromatic hydroxylation at ring-A
Cytochrome P450 3A4 [8] = target: T1, Cytochrome P450 3A4; experiment: (§1) Metabolic stability of the compound assessed as CYP3A4 NF-14-mediated N-demethylation
CYP3A4 = CYP3A4 (Homo sapiens, UniProt P08684); experiment: as §1; conditions: human, CYP3A4 NF-14
Chain of CYP3A4 (P08684 whole entry): as above

Cytochrome P450 3A4 [9] = target: T1, Cytochrome P450 3A4; experiment: Metabolic stability of the compound assessed as CYP3A4 NF-14-mediated aromatic hydroxylation at ring-B

| SMILES | Ki (Cytochrome P450 3A4 [1]) [µM] | CL (Cytochrome P450 3A4 [3]) [µM⁻¹ min⁻¹] | Activity (Cytochrome P450 3A4 [4]) | Activity (Cytochrome P450 3A4 [5]) | also measured |
| --- | --- | --- | --- | --- | --- |
| Cc1ccc(NC(=O)c2cc(-c3ccncc3)nc3ccccc23)cc1 | 0.54 | 9.7 | Active |  | Ratio (Cytochrome P450 3A4 [2]): 4.4 |
| CN(C)c1ccc(NC(=O)c2cc(-c3ccccn3)nc3ccccc23)cc1 | 32.9 | 1 |  | Active |  |
| O=C(Nc1ccccc1)c1cc(-c2ccccc2)nc2ccccc12 | 4.1 | 1.3 |  | Active | Ratio (Cytochrome P450 3A4 [6]): 1.3 |
| Cc1ccc(NC(=O)c2cc(-c3ccncn3)nc3ccccc23)cc1 | 3 | 4 | Active |  |  |
| Cc1ccc(NC(=O)c2cc(-c3ccccc3)nc3ccccc23)cc1 | 3.97 | 3.4 |  | Active | Ratio (Cytochrome P450 3A4 [6]): 6 |
| O=C(Nc1ccccc1)c1cc(-c2ccccn2)nc2ccccc12 | 14.5 | 1.3 |  | Active |  |
| O=C(Nc1ccccc1)c1cc(-c2ccncn2)nc2ccccc12 | 2.2 | 3.2 | Active |  |  |
| Cc1ccc(NC(=O)c2cc(-c3ccccn3)nc3ccccc23)cc1 | 3.9 | 2.9 |  | Active |  |
| CN(C)c1ccc(NC(=O)c2cc(-c3ccncn3)nc3ccccc23)cc1 | 8.4 | 3.4 | Active |  |  |
| Cc1ccc(NC(=O)c2cc(-c3cnccn3)nc3ccccc23)cc1 | 2.7 | 3.3 | Active |  |  |
| O=C(Nc1ccccc1)c1cc(-c2ccncc2)nc2ccccc12 | 0.7 | 12.1 | Active |  | Ratio (Cytochrome P450 3A4 [2]): 1.3 |
| COc1ccc(NC(=O)c2cc(-c3ccccn3)nc3ccccc23)cc1 | 11.9 | 2.2 |  | Active |  |
| COc1ccc(NC(=O)c2cc(-c3ccncc3)nc3ccccc23)cc1 | 0.54 | 4.4 | Active |  | Kcat (Cytochrome P450 3A4 [7]): 0.0217 s⁻¹; Km (Cytochrome P450 3A4 [7]): 0.7 µM; Ratio (Cytochrome P450 3A4 [2]): 1.4 |
| CN(C)c1ccc(NC(=O)c2cc(-c3ccccc3)nc3ccccc23)cc1 | 14.4 | 9.6 |  | Active | Kcat (Cytochrome P450 3A4 [8]): 0.465 s⁻¹; Km (CYP3A4): 2.9 µM; Kcat (Cytochrome P450 3A4 [9]): 0 s⁻¹ |
| CN(C)c1ccc(NC(=O)c2cc(-c3cnccn3)nc3ccccc23)cc1 | 15.9 | 2.8 | Active |  |  |
| O=C(Nc1ccccc1)c1cc(-c2cnccn2)nc2ccccc12 | 6.9 | 2.5 | Active |  |  |
| CN(C)c1ccc(NC(=O)c2cc(-c3ccncc3)nc3ccccc23)cc1 | 0.8 | 12.7 | Active |  | Kcat (Cytochrome P450 3A4 [7]): 0 s⁻¹; Kcat (Cytochrome P450 3A4 [8]): 0.218 s⁻¹ |
| COc1ccc(NC(=O)c2cc(-c3ccncn3)nc3ccccc23)cc1 | 2.2 | 3.3 | Active |  |  |
| COc1ccc(NC(=O)c2cc(-c3cnccn3)nc3ccccc23)cc1 | 20.1 | 3.4 | Active |  |  |
